What was measured:
NSA mice = test: Hypothermia study (block of CP 55,940-induced hypothermia); type: in vivo; design: Hypothermia 3 mg/kg / Hypothermia 0.3 mg/kg: unit not given here; details: for Hypothermia ID50: block of CP 55,940-induced hypothermia
Description: . […] Core body temperatures were then obtained at various time points following CP 55,940 administration. Core body temperature (to the nearest 0.1° C.) was obtained by rectal probe.

native CB1 receptors = native CB1 receptors (Rattus norvegicus, UniProt P20272); test: CB1 receptor rat binding assay ([3H]SR141716A, rat brain membranes); details: rat brain membranes, [3H]SR141716A; for Ki: read-out: Binding rat pKi (converted)
native CB1 receptors, sequence (P20272 whole entry): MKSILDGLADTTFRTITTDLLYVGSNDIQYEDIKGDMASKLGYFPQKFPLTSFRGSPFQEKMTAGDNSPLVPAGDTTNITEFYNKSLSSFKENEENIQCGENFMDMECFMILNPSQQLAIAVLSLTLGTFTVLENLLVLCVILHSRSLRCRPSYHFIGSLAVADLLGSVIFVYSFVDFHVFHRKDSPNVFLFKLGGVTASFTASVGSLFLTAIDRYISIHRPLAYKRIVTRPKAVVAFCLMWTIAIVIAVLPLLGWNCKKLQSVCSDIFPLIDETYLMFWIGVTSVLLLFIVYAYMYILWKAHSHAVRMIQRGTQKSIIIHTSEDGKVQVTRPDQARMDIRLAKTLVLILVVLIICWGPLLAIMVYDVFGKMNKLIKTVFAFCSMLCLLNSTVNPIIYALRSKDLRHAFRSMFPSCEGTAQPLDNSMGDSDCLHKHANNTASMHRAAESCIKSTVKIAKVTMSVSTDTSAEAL

| Compound | Hypothermia 3 mg/kg (NSA mice) | Hypothermia 0.3 mg/kg (NSA mice) | other results |
| --- | --- | --- | --- |
| Cc1csc(CNC(=O)c2ccc3c(c2)N=C(c2sccc2C)c2ccccc2S3)c1 [drawing 1610] | −2 | – | – |
| Cc1ccsc1C1=Nc2cc(C(=O)NCc3ccco3)ccc2Sc2ccccc21 [drawing 1639] | 30 | – | – |
| COc1cccc(C2=Nc3cc(C(=O)NC4CCC(F)(F)CC4)ccc3Sc3ccccc32)n1 [drawing 1572] | 19 | – | – |
| O=C(NC1CCCCC1)c1ccc2c(c1)N=C(c1ccc(Cl)cc1)c1ccccc1S2 [drawing 1603] | 60 | – | – |
| O=C(NCc1cccs1)c1ccc2c(c1)N=C(c1ccc(Cl)s1)c1ccccc1S2 [drawing 1612] | 47 | – | – |
| O=C(NN1CCCCCC1)c1ccc2c(c1)N=C(c1ccc(Cl)cc1F)c1ccccc1S2 [drawing 1563] | 54 | 2 | – |
| CCCCNC(=O)c1ccc2c(c1)N=C(c1ccc(Cl)s1)c1ccccc1S2 [drawing 1568] | 53 | 12 | Hypothermia ID50 (NSA mice): 2.3 mg/kg |
| O=C(NCc1cccs1)c1ccc2c(c1)N=C(c1ccc(Cl)cc1)c1ccccc1S2 [drawing 1628] | 92 | – | Hypothermia ID50 (NSA mice): 0.9 mg/kg |
| O=C(NCc1cccs1)c1ccc2c(c1)N=C(c1cccc(F)c1)c1ccccc1S2 [drawing 1559] | 17 | – | – |
| O=C(NCc1ccc(F)cc1)c1ccc2c(c1)N=C(c1ccc(Cl)cc1)c1ccccc1[S+]2[O-] (centres unmarked) [drawing 1645] | 22 | – | – |
| O=C(NN1CCCCCC1)c1ccc2c(c1)N=C(c1cccc(Cl)c1)c1ccccc1S2 [drawing 1586] | 86 | −27 | Hypothermia ID50 (NSA mice): 1.14 mg/kg |
| Cc1ccsc1C1=Nc2cc(C(=O)NN3CCCCC3)ccc2Sc2ccccc21 [drawing 1615] | 31 | – | – |
| O=C(NCc1cccnc1)c1ccc2c(c1)N=C(c1cccc(Br)c1)c1ccccc1S2 [drawing 1641] | 56 | 0 | – |
| C[C@@H]1CCC[C@H](C)N1NC(=O)c1ccc2c(c1)N=C(c1cccc(Cl)c1)c1ccccc1S2 [drawing 1605] | −2 | – | – |
| O=C(NN1CCCCC1)c1ccc2c(c1)N=C(C1CCCCC1)c1ccccc1S2 [drawing 1592] | 69 | – | – |
| CCCCNC(=O)c1ccc2c(c1)N=C(c1ccc(Cl)s1)c1ccc(Cl)cc1S2 [drawing 1589] | 1 | – | – |
| CC(C)CNC(=O)c1ccc2c(c1)N=C(c1ccc(Cl)c(Cl)c1)c1ccccc1S2 [drawing 1570] | 40 | – | – |
| COc1ccc(C2=Nc3cc(C(=O)NCC(C)C)ccc3Sc3ccccc32)cc1 [drawing 1599] | 71 | – | – |
| CCCCNC(=O)C1=C/C=C/Sc2cc(F)ccc2/C(c2ccc(Cl)cn2)=N\C=C\1 | 4 | – | – |
| O=C(NCc1ccc(F)cc1)c1ccc2c(c1)N=C(C1CCCCC1)c1ccccc1S2 [drawing 1640] | 80 | 24 | Hypothermia ID50 (NSA mice): 1.5 mg/kg |

| Compound | Hypothermia 3 mg/kg (NSA mice) | Hypothermia 0.3 mg/kg (NSA mice) | other results |
| --- | --- | --- | --- |
| O=C(NN1CCCCC1)c1ccc2c(c1)N=C(c1ccc(Cl)cc1)c1ccccc1S2 [drawing 1575] | 69 | −18 | – |
| O=C(NN1CCCCCC1)c1ccc2c(c1)N=C(c1cccc(F)c1)c1ccccc1S2 [drawing 1590] | 85 | 21 | Hypothermia ID50 (NSA mice): 0.93 mg/kg |
| O=C(NCc1ccccn1)c1ccc2c(c1)N=C(c1ccc(Cl)cc1)c1ccccc1S2 [drawing 1637] | 42 | – | – |
| CC(C)CNC(=O)c1ccc2c(c1)N=C(c1ccc(Cl)cc1)c1ccccc1S2 [drawing 1634] | 79 | 25 | – |
| CC(C)CCNC(=O)c1ccc2c(c1)N=C(c1ccccn1)c1ccccc1S2 [drawing 1649] | 21 | – | – |
| CC(C)CCNC(=O)c1ccc2c(c1)N=C(c1cccc(F)c1)c1ccccc1S2 [drawing 1602] | 67 | 0 | – |
| CCCCNC(=O)c1ccc2c(c1)N=C(c1ccc(Cl)cc1)c1ccccc1S2 [drawing 1560] | 82 | 15 | Hypothermia ID50 (NSA mice): 0.79 mg/kg |
| O=C(NC1CCC(F)(F)CC1)c1ccc2c(c1)N=C(c1ccc(Cl)s1)c1ccccc1S2 [drawing 1596] | 51 | – | – |
| O=C(NCc1ccccc1Cl)c1ccc2c(c1)N=C(c1cccc(Cl)c1)c1ccccc1S2 [drawing 1573] | −2 | – | – |
| O=C(NCc1cccc(Cl)c1)c1ccc2c(c1)N=C(c1ccc(F)cc1)c1ccccc1S2(=O)=O [drawing 1571] | 45 | – | – |
| O=C(NCc1ccco1)c1ccc2c(c1)N=C(c1cccc(Cl)c1)c1ccccc1S2 [drawing 1581] | 67 | 24 | Hypothermia ID50 (NSA mice): 1 mg/kg |
| O=C(NCc1ccco1)c1ccc2c(c1)N=C(c1cccc(F)c1)c1ccccc1S2 [drawing 1631] | 21 | – | – |
| O=C(NCc1ccccc1)c1ccc2c(c1)N=C(c1cccc(Cl)c1)c1ccccc1S2 [drawing 1638] | 27 | – | – |
| O=C(NC1CCC(F)(F)CC1)c1ccc2c(c1)N=C(c1cccc(Cl)c1)c1ccccc1S2 [drawing 1604] | – | 5 | – |
| O=C(NN1CCCCCC1)c1ccc2c(c1)N=C(c1ccc(Cl)s1)c1ccccc1S2 [drawing 1584] | 83 | 33 | Hypothermia ID50 (NSA mice): 0.59 mg/kg |
| O=C(NCc1ccco1)c1ccc2c(c1)N=C(c1ccc(Cl)cc1)c1ccccc1S2 [drawing 1650] | 79 | 28 | Hypothermia ID50 (NSA mice): 0.9 mg/kg |
| O=C(NCc1ccco1)c1ccc2c(c1)N=C(c1ccc(Cl)c(Cl)c1)c1ccccc1S2 [drawing 1567] | 54 | – | – |
| Cc1csc(CNC(=O)c2ccc3c(c2)N=C(c2cccc(C)n2)c2ccccc2S3)c1 [drawing 1616] | 54 | 42 | Hypothermia ID50 (NSA mice): 1.8 mg/kg |
| CCCCNC(=O)c1ccc2c(c1)N=C(c1ccc(Cl)s1)c1cc(Cl)ccc1S2 [drawing 1577] | −9 | – | – |
| O=C(NCc1cccnc1)c1ccc2c(c1)N=C(c1ccc(F)cc1)c1ccccc1S2 [drawing 1611] | 28 | 11 | – |

| Compound | Hypothermia 3 mg/kg (NSA mice) | Hypothermia 0.3 mg/kg (NSA mice) | other results |
| --- | --- | --- | --- |
| O=C(NCc1cccs1)c1ccc2c(c1)N=C(c1ccccc1F)c1ccccc1S2 [drawing 1623] | 10 | – | – |
| COc1cccc(C2=Nc3cc(C(=O)NCCCC(F)(F)F)ccc3Sc3ccccc32)n1 [drawing 1566] | 46 | – | – |
| O=C(NCCCC(F)(F)F)c1ccc2c(c1)N=C(c1ccsc1)c1ccccc1S2 [drawing 1600] | – | 32 | – |
| CCCNC(=O)c1ccc2c(c1)N=C(c1ccc(Cl)cc1)c1ccccc1S2 [drawing 1588] | 54 | 29 | – |
| CCCCNC(=O)c1ccc2c(c1)N=C(c1ccc(Cl)s1)c1cc(F)ccc1S2 [drawing 1601] | 17 | – | – |
| CCCCNC(=O)c1ccc2c(c1)N=C(c1ccc(Cl)cc1)c1ccc(Cl)cc1S2 [drawing 1617] | 30 | – | – |
| O=C(NCc1cccnc1)c1ccc2c(c1)N=C(c1ccc(Cl)cc1)c1ccccc1S2 [drawing 1633] | 27 | – | – |
| O=C(NCCc1cccnc1)c1ccc2c(c1)N=C(c1cccc(Cl)c1)c1ccccc1S2 [drawing 1643] | 41 | – | – |
| CCCCNC(=O)c1ccc2c(c1)N=C(c1ccc(Cl)cn1)c1cc(F)ccc1S2 [drawing 1627] | 8 | – | – |
| O=C(NCc1cccnc1)c1ccc2c(c1)N=C(c1cccc(F)c1)c1ccccc1S2 [drawing 1621] | 17 | – | – |
| Cc1ccc(CNC(=O)c2ccc3c(c2)N=C(c2sccc2C)c2ccccc2S3)o1 [drawing 1400] | – | – | Binding rat Inh % (native CB1 receptors): 102%; Ki (native CB1 receptors): 6.31 nM |
| O=C(NCc1cccc(Cl)c1)c1ccc2c(c1)N=C(N1CCCCC1)c1ccccc1[S+]2[O-] (centres unmarked) [drawing 1315] | – | – | Ki (native CB1 receptors): 25.1 nM |
| CCOC(=O)N1CCC(NC(=O)c2ccc3c(c2)N=C(C2CCCCC2)c2ccccc2S3)CC1 [drawing 1517] | – | – | Ki (native CB1 receptors): 10 nM |
| O=C(NN1CCCCC1)c1ccc2c(c1)N=C(c1ccc(Cl)cc1)c1ccccc1O2 | – | – | Ki (native CB1 receptors): 79.4 nM |
| O=C(NC1CCC(F)(F)CC1)c1ccc2c(c1)N=C(c1ccccn1)c1ccccc1S2 [drawing 1414] | – | – | Binding rat Inh % (native CB1 receptors): 73%; Ki (native CB1 receptors): 39.8 nM |
| O=C(NN1CCCCC1)c1ccc2c(c1)N=C(c1ccc(F)cn1)c1ccccc1S2 [drawing 1494] | – | – | Binding rat Inh % (native CB1 receptors): 94%; Ki (native CB1 receptors): 63.1 nM |
| COc1cccc(C2=Nc3cc(C(=O)NCCC(F)(F)F)ccc3Sc3ccccc32)n1 [drawing 1237] | – | – | Binding rat Inh % (native CB1 receptors): 91%; Ki (native CB1 receptors): 15.8 nM |
| Cc1csc(CNC(=O)c2ccc3c(c2)N=C(c2cccc(C)n2)c2ccccc2S3)c1 [drawing 1263] | – | – | Binding rat Inh % (native CB1 receptors): 94%; Ki (native CB1 receptors): 1.58 nM |

Reference: patent US20080090805A1, “CB-1 MODULATING COMPOUNDS AND THEIR USE” (ACADIA PHARMACEUTICALS INC., priority 2005, published 2008)
